Experimental data taken from PubChem BioAssay AID248 (DTP/NCI, 2004).
Where “and” joins values, the source holds several entries; their conditions need not be identical. Equal entries are not always repeated. Toxic doses and inconclusive results are not listed. No stated cut-off is given here; in the data, active means T/C of 150% or more; inactive means T/C below 125%.

Test system: L1210 leukemia ip in BDF1 mice, survival T/C
Assay: NCI In Vivo Anticancer Drug Screen. Data for tumor model L1210 Leukemia (intraperitoneal) in B6D2F1 (BDF1) mice
Details: endpoint: mean survival time, higher = longer survival
Procedure, shortened: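 In this screen, tumor-bearing mice given compound are compared to those given vehicle, and their survival values are reported as a treated-to-control quotient.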

[1] = dose: 50.0 mg/kg/injection, schedule: Q01DX001 (ip), vehicle: carboxymethylcellulose (CMC)
[2] = dose: 100.0 mg/kg/injection, schedule: Q01DX001 (ip), vehicle: carboxymethylcellulose (CMC)
[3] = dose: 200.0 mg/kg/injection, schedule: Q01DX001 (ip), vehicle: carboxymethylcellulose (CMC)
[4] = dose: 100.0 mg/kg/injection, schedule: Q04DX002 (ip), vehicle: Klucel (hydroxypropylcellulose) (HPC)
[5] = dose: 200.0 mg/kg/injection, schedule: Q04DX002 (ip), vehicle: Klucel (hydroxypropylcellulose) (HPC)
[6] = dose: 400.0 mg/kg/injection, schedule: Q04DX002 (ip), vehicle: Klucel (hydroxypropylcellulose) (HPC)
[7] = dose: 100.0 mg/kg/injection, schedule: Q01DX001 (ip), vehicle: Klucel (hydroxypropylcellulose) (HPC)
[8] = dose: 200.0 mg/kg/injection, schedule: Q01DX001 (ip), vehicle: Klucel (hydroxypropylcellulose) (HPC)
[9] = dose: 400.0 mg/kg/injection, schedule: Q01DX001 (ip), vehicle: Klucel (hydroxypropylcellulose) (HPC)
[10] = dose: 400.0 mg/kg/injection, schedule: Q01DX001 (ip), vehicle: carboxymethylcellulose (CMC)
[11] = dose: 100.0 mg/kg/injection, schedule: Q04DX003 (ip), vehicle: saline
[12] = dose: 200.0 mg/kg/injection, schedule: Q04DX003 (ip), vehicle: saline
[13] = dose: 100.0 mg/kg/injection, schedule: Q01DX009 (ip), vehicle: Klucel (hydroxypropylcellulose) (HPC)
[14] = dose: 200.0 mg/kg/injection, schedule: Q01DX009 (ip), vehicle: Klucel (hydroxypropylcellulose) (HPC)
[15] = dose: 25.0 mg/kg/injection, schedule: Q04DX003 (ip), vehicle: saline with Tween-80
[16] = dose: 100.0 mg/kg/injection, schedule: Q04DX003 (ip), vehicle: saline with Tween-80
[17] = dose: 200.0 mg/kg/injection, schedule: Q04DX003 (ip), vehicle: saline with Tween-80
[18] = dose: 100.0 mg/kg/injection, schedule: Q04DX003 (ip), vehicle: Klucel (hydroxypropylcellulose) (HPC)
[19] = dose: 200.0 mg/kg/injection, schedule: Q04DX003 (ip), vehicle: Klucel (hydroxypropylcellulose) (HPC)
[20] = dose: 400.0 mg/kg/injection, schedule: Q04DX003 (ip), vehicle: Klucel (hydroxypropylcellulose) (HPC)

Measured: T/C

CCCCC(=O)N(CC(C)C)CC(C)C
inactive: dose: 25.0 mg/kg/injection, schedule: Q04DX002 (ip), vehicle: carboxymethylcellulose (CMC) 95 % of control | [1] 95 % of control | dose: 50.0 mg/kg/injection, schedule: Q01DX009 (ip), vehicle: carboxymethylcellulose (CMC) 98 % of control and 120 % of control | dose: 50.0 mg/kg/injection, schedule: Q04DX002 (ip), vehicle: carboxymethylcellulose (CMC) 100 % of control and 102 % of control | dose: 50.0 mg/kg/injection, schedule: Q04DX003 (ip), vehicle: carboxymethylcellulose (CMC) 101 % of control | [2] 97 % of control | dose: 100.0 mg/kg/injection, schedule: Q01DX009 (ip), vehicle: carboxymethylcellulose (CMC) 95 % of control and 103 % of control | dose: 100.0 mg/kg/injection, schedule: Q04DX002 (ip), vehicle: carboxymethylcellulose (CMC) 98 % of control and 103 % of control and 105 % of control | dose: 100.0 mg/kg/injection, schedule: Q04DX003 (ip), vehicle: carboxymethylcellulose (CMC) 95 % of control | [3] 88 % of control | dose: 200.0 mg/kg/injection, schedule: Q01DX009 (ip), vehicle: carboxymethylcellulose (CMC) 103 % of control and 92 % of control | dose: 200.0 mg/kg/injection, schedule: Q04DX002 (ip), vehicle: carboxymethylcellulose (CMC) 92 % of control | dose: 200.0 mg/kg/injection, schedule: Q04DX003 (ip), vehicle: carboxymethylcellulose (CMC) 101 % of control | dose: 400.0 mg/kg/injection, schedule: Q04DX002 (ip), vehicle: carboxymethylcellulose (CMC) 102 % of control

Nc1cnccc1NCCN1CCN(c2ccccc2)CC1
inactive: dose: 100.0 mg/kg/injection, schedule: Q01DX001 (ip), vehicle: saline 98 % of control

Cc1ccc(C(=O)/C=C/c2ccco2)c(C)c1
inactive: [4] 99 % of control | [5] 86 % of control | [6] 99 % of control

CCOC1(OCC)CC2(Cl)C(Cl)=C(Cl)C(Cl)(C3C1CC3(OCC)OCC)C2(OC)OC (configuration not stated)
inactive: dose: 75.0 mg/kg/injection, schedule: Q01DX009 (ip), vehicle: Klucel (hydroxypropylcellulose) (HPC) 103 % of control | [7] 95 % of control | dose: 150.0 mg/kg/injection, schedule: Q01DX009 (ip), vehicle: Klucel (hydroxypropylcellulose) (HPC) 107 % of control | [8] 103 % of control | dose: 300.0 mg/kg/injection, schedule: Q01DX009 (ip), vehicle: Klucel (hydroxypropylcellulose) (HPC) 100 % of control | [9] 97 % of control

Clc1ccc(/C=N/N2CCN(/N=C/c3ccc(Cl)cc3)CC2)cc1
inactive: [2] 96 % of control | [3] 96 % of control | [10] 96 % of control

O=C(CS)NNC(=O)CS
inactive: [4] 93 % of control | [11] 104 % of control | [5] 96 % of control | [12] 110 % of control | [6] 104 % of control | dose: 400.0 mg/kg/injection, schedule: Q04DX003 (ip), vehicle: saline 86 % of control

O=Nc1ccc(O)cc1Br
inactive: [7] 100 % of control | [8] 97 % of control | [9] 100 % of control and 92 % of control

O=C1CCC2c3ccccc3C(=O)C2C1 (configuration not stated)
inactive: dose: 50.0 mg/kg/injection, schedule: Q01DX009 (ip), vehicle: Klucel (hydroxypropylcellulose) (HPC) 100 % of control | [13] 100 % of control | [14] 98 % of control

Cc1ccc(N=Cc2cc(Cl)ccc2O)cc1.Cc1ccc(N=Cc2cc(Cl)ccc2O)cc1.[Co]
inactive: [15] 94 % of control | [16] 116 % of control and 91 % of control

Clc1ccc(Cl)nn1
inactive: dose: 100.0 mg/kg/injection, schedule: Q04DX002 (ip), vehicle: saline 102 % of control | dose: 200.0 mg/kg/injection, schedule: Q04DX002 (ip), vehicle: saline 87 % of control | dose: 400.0 mg/kg/injection, schedule: Q04DX002 (ip), vehicle: saline 87 % of control

COc1cc(C(C)=O)cc([N+](=O)[O-])c1O
inactive: [16] 107 % of control | [17] 105 % of control

Cc1ccc(C(=O)O)cc1S(=O)(=O)Cl
inactive: dose: 50.0 mg/kg/injection, schedule: Q01DX009 (ip), vehicle: saline with Tween-80 113 % of control | dose: 100.0 mg/kg/injection, schedule: Q01DX009 (ip), vehicle: saline with Tween-80 98 % of control | [16] 102 % of control | dose: 200.0 mg/kg/injection, schedule: Q01DX009 (ip), vehicle: saline with Tween-80 95 % of control | [17] 87 % of control | dose: 400.0 mg/kg/injection, schedule: Q04DX003 (ip), vehicle: saline with Tween-80 92 % of control

CC(=O)OCCSC#N
inactive: dose: 12.5 mg/kg/injection, schedule: Q04DX003 (ip), vehicle: saline with Tween-80 98 % of control | [15] 97 % of control

Nc1ncnc2c1ncn2C1OC(COP(=O)(O)O)C(O)C1O (configuration not stated)
inactive: dose: 9.4 mg/kg/injection, schedule: Q03HX016 (ip), vehicle: water 108 % of control | dose: 9.4 mg/kg/injection, schedule: Q03HX024 (ip), vehicle: water 104 % of control | dose: 18.8 mg/kg/injection, schedule: Q03HX016 (ip), vehicle: water 108 % of control | dose: 18.8 mg/kg/injection, schedule: Q03HX024 (ip), vehicle: water 106 % of control | dose: 37.5 mg/kg/injection, schedule: Q03HX016 (ip), vehicle: water 108 % of control | dose: 37.5 mg/kg/injection, schedule: Q03HX024 (ip), vehicle: water 110 % of control | dose: 75.0 mg/kg/injection, schedule: Q03HX016 (ip), vehicle: water 116 % of control | dose: 75.0 mg/kg/injection, schedule: Q03HX024 (ip), vehicle: water 115 % of control | dose: 100.0 mg/kg/injection, schedule: Q01DX005 (ip), vehicle: saline 98 % of control | dose: 200.0 mg/kg/injection, schedule: Q01DX005 (ip), vehicle: saline 98 % of control

CN(C)CCOc1ccccc1Cc1ccccc1
inactive: dose: 12.5 mg/kg/injection, schedule: Q01DX009 (ip), vehicle: saline 96 % of control | dose: 25.0 mg/kg/injection, schedule: Q01DX009 (ip), vehicle: saline 97 % of control | dose: 25.0 mg/kg/injection, schedule: Q04DX003 (ip), vehicle: saline 107 % of control | dose: 50.0 mg/kg/injection, schedule: Q01DX009 (ip), vehicle: saline 90 % of control | dose: 50.0 mg/kg/injection, schedule: Q04DX003 (ip), vehicle: saline 98 % of control | dose: 100.0 mg/kg/injection, schedule: Q01DX009 (ip), vehicle: saline 103 % of control | [11] 107 % of control | dose: 200.0 mg/kg/injection, schedule: Q01DX009 (ip), vehicle: saline 110 % of control | [12] 107 % of control

CCOP(=O)(Nc1ccc2c(c1)C(=O)c1ccccc1-2)OCC
inactive: [1] 97 % of control | [2] 103 % of control | [3] 100 % of control | [10] 103 % of control

O=C(OCC#CC#CCOC(=O)c1ccccc1)c1ccccc1
inactive: [13] 102 % of control | [18] 94 % of control | [14] 95 % of control | [19] 96 % of control | dose: 400.0 mg/kg/injection, schedule: Q01DX009 (ip), vehicle: Klucel (hydroxypropylcellulose) (HPC) 104 % of control | [20] 89 % of control

Cn1cnc2c1c(=N)ncn2O
inactive: dose: 100.0 mg/kg/injection, schedule: Q01DX001 (ip), vehicle: other 103 % of control | dose: 100.0 mg/kg/injection, schedule: Q04DX003 (ip), vehicle: other 107 % of control | dose: 200.0 mg/kg/injection, schedule: Q01DX001 (ip), vehicle: other 103 % of control | dose: 200.0 mg/kg/injection, schedule: Q04DX003 (ip), vehicle: other 113 % of control | dose: 400.0 mg/kg/injection, schedule: Q01DX001 (ip), vehicle: other 103 % of control | dose: 400.0 mg/kg/injection, schedule: Q04DX003 (ip), vehicle: other 113 % of control

CN(CCO)C(=O)c1ccc([N+](=O)[O-])cc1
inactive: [18] 91 % of control | [19] 88 % of control | [20] 107 % of control
